SMILES strings stand for the structures. Like-named read-outs stand apart in the source and are kept apart here.

For series [1] the following is noted: rats; cited from earlier work.
For series [2] the following is noted: dogs; up to 120 mg/kg daily i.v. for 28 days; cited from earlier work.
The conditions of series [3]: mice; cited from earlier work.
The nature of series [4]: Estimated ^15N T1 (FIG. 1). The settings on record: same order of magnitude as [^15N,D9]choline, called a speculation.
Text: FIG. 1 ^15N T1s of selected molecules in water (H2O) and D2O measured at 5.8 T; (a) denotes Na^15NO3; (b) denotes solid-state polarization in D2O and dissolution in D2O.; (c) denotes solid-state polarization in D2O and dissolution in H2O.; In this case, during the decay in solution the nitrogen positions are fully protonated as confirmed by the respective split pattern of the signal (not shown); a, b, and c—determined experimentally; (d) denotes estimation.
The conditions of series [5]: previous results; cited from earlier work.
Series [6] deals with breast tumor bearing mouse. The settings on record: 50 mM solution injected.
The conditions of series [7]: for T1 in the 1st min of hyperpolarization decay: 0-60 s; for T1 in the 2nd min of hyperpolarization decay: 65-120 s. From the text:
The dissolution process is detailed in the results section. […] Unless otherwise stated, the dissolved hyperpolarized solution was directly injected to a screw cup 10 mm NMR tube in a 5.8T NMR spectrometer via a PTFE line of about 2.4 m length with 3 s of He(g) chase. This line was wrapped with a heating tape (MRC, Holon, Israel) that enabled control over the temperature of the dissolution medium arriving to the NMR tube directly or to a collection tube in the fringe field of the spectrometer. ^15N-Nuclear Magnetic Resonance (NMR) spectra were continuously recorded immediately at the start of the dissolution process. […] In the experiments in body fluids and in experiments in which the hyperpolarized solution was first cooled to temperatures below room temperature, the dissolution media was first collected in a conical tube placed in the spectrometer's fringe field, and then was injected by syringe via a PEEK line to the NMR tube that was placed in the magnet.
For heating this hyperpolarized solution prior to arrival to the NMR tube, the PTFE line leading the hyperpolarized solution out of the spin polarization device was wrapped with a heating tape connected to a temperature controller (MRC, Holon, Israel). In this way, hyperpolarized solutions at temperatures higher than 26° C. could be obtained. For cooling the hyperpolarized solution, the heating tape was not turned on and the dissolution medium was mixed with 0 to 4 mL of D2O at 2° C. in a collection tube placed in ice-water bath in the fringe field of the magnet, prior to injection.
(§1) ^15N-NMR spectroscopy was performed in a 5.8T NMR spectrometer (RS2D, Mundolsheim, France), using a 10 mm broad-band NMR probe. The chemical shift scale of the spectra presented herein was calibrated based on a separate measurement of a [^15N2]urea standard sample (4M in H2O:D2O 80:20), carried out prior to hyperpolarized ^15N acquisitions, calibrating the [^15N2]urea signal to −306 ppm (relative to nitromethane). For enhancement factor calculation, the spectra were collected with a high flip angle of […] and a repetition time of 2 s. For T1 calculation, the spectra were acquired with a low flip angle of […] and a longer repetition time of 5-10 s.
The temperature in the NMR tube was continuously monitored using an NMR compatible temperature probe (Osensa, Burnaby, BC, Canada).
Determination of the T1 of the hyperpolarized sites was performed by curve fitting of the signal decay to the following equation: S(t)=S0·e^−t/T^1·(cos θ)^t/TR, in which TR, the time between excitations, and θ, the nutation angle of excitation, are known. Curve fitting was performed using Matlab (Mathworks, Natick, Mass., USA).

How the values of series [8] were obtained:
Then, 4.59 mL saline and 0.66 mL of D2O were added to this mixture. This solution was transferred to an NMR tube and scanned for 5 days. ^15N fully-relaxed spectra were recorded in blocks of about 4 h, whereas each block consisted of 720 averages with a 30 flip angle and a repetition time of 20 s.
(§2) In the next step, this solution was divided into 2 samples, in the following manner: 3 mL of this solution were combined with 0.75 mL of human saliva and the combined solution was scanned for 5 days. The rest of the solution (without human saliva) was kept outside the magnet at room temperature.

The procedure of series [9]:
The small amounts of hyperpolarized solution were added to the blood sample at 0, 3, 6, 7.25, and 9.17 min from arrival of the solution to the collection tube.
This is another data set of the same source.

How the values of series [10] were obtained: as §1
The absolute enhancement factor was determined by comparing the maximal SNR of the magnitude signal multiplied by the linewidth at half-height obtained under hyperpolarized conditions to the intensity of the thermal equilibrium signal of the same sample (analyzed in the same way). The spectrum at thermal equilibrium was acquired with the same nutation angle under fully relaxed conditions. The same spectral acquisition parameters (spectral width, number of points, receiver gain) and processing parameters (apodization, zero-filling) were used in the analysis of both spectra and the thermal equilibrium signal was corrected for the number of scans.
in the same spectrometer used to record the hyperpolarized signal (5.8T), as described in the Methods section, and then projected to the expected enhancement factors at a common clinical scanner at 1.5T. Enhancement factors were calculated with reference to a spectrum of the same sample.
The source holds these as a separate data set.

The procedure of series [11]:
For this reason it was important to determine also the potential conversion to hyperpolarized [^15N]nitrite in human saliva.
To test for the presence of [^15N]nitrite in this saline-saliva sample after the hyperpolarized state had decayed, the same sample was scanned at thermal equilibrium as well. The sample was scanned for 20 h, at room temperature.
as §2
This is another data set of the same source.

As for `C[N+](C)(C)CCOP(=O)([O-])OC[C@H](O)CO` [GPC, glycerophosphocholine], the results for the “safe dose for an intravenous injection” value in [1] and in [3] were 781 mg/kg and 521 mg/kg, respectively. Moreover, the “effects of daily intravenous injection” value in [2] is “only mild and reversible mood changes and no mortality”.
Take `[2H]C([2H])([2H])[15N+](CCOP(=O)([O-])OCC(O)CO)(C([2H])([2H])[2H])C([2H])([2H])[2H]` (stereo not drawn) [[^15N,D9]GPC, [^15N,D9]glycerophosphocholine]: in [4], the “^15N T1 (estimated)” value is “about 6 min”.
In the case of `[2H]C([2H])([2H])[15N+](CCO)(C([2H])([2H])[2H])C([2H])([2H])[2H]` [[^15N,D9]choline], the “^15N T1” value in series [5] was “about 6 min”.
Turning to `O=[15N+]([O-])[O-].[Na+]` [[^15N]nitrate, sodium [^15N]nitrate], the “mouse vascular system in ^15N MR image” value in [6] is given as “enhanced in the MR image”. For the same molecule, in [6], the “tumor tissue in ^15N MR image” value is given as “enhanced in the MR image”. For the same molecule, the “dependence of T1 on temperature” value in [7] (34-50° C.) is “does not change”. Also, the “increase of T1 in 2nd min versus 1st min” value in [7] (D2O) was found to be 43%; in series [9] (blood), 78%. The “T1 in the 1st min of hyperpolarization decay” value in series [7] (D2O (n = 4)) amounted to 81 ± 20; in series [7] (H2O (n = 2)), 99 ± 3; in [9] (Blood (n = 3), 0-60 s), 27 ± 0.4; in [11] (Saline + saliva (n = 1), 0-60 s), 116. Besides, the “T1 in the 2nd min of hyperpolarization decay” value was found to be 116 ± 7 in series [7] (D2O (n = 4)); 99 ± 5 in series [7] (H2O (n = 2)); 48 ± 1 in [9] (Blood (n = 3), 65-120 s). The “signals in saline solution” value in series [8] (22 mM with glucose 2.7 mM in saline, scanned 5 days, room temperature, FIG. 5A) is “Only the [^15N]nitrate signal appears in the spectrum”. Moreover, the “conversion to [^15N]nitrite in saline without saliva” value in series [8] (additional 5 days scan started after 14 days at room temperature, FIG. 5C) was “no conversion to [^15N]nitrite was observed”. For the same molecule, in series [8] (room temperature), the “stable in saline solution” value is on record as “at least 19 days”. The T1 in blood in [9] (decay 1 of consecutive injections, error = 95% CI of fit) was found to be 29 ± 2 s; in series [9] (decay 2 of consecutive injections, error = 95% CI of fit) it was 30 ± 3 s. For the same molecule, the T1 in series [9] (saline/whole human blood mixture (4 mL + 10 mL), 25 mM, 32-36° C., error = 95% CI of fit) turned out to be 29 ± 1 s. Besides, the “T1 upon mixing with whole blood” value in series [9] (three measurements in two different blood samples) stood at 29 ± 1 s. The “^15N polarization” value in series [10] (corresponds to enhancement factor 5,298) was determined as 1%. The “enhancement factor extrapolated to clinical MRI field of 1.5T” value in series [10] (extrapolated from 5,298 at 5.8 T) is on record as “about 20,500”. Moreover, in series [10] (first signal in solution, 5.8 T, 2.5 h polarization at 1.5-1.6 K), the maximal enhancement factor is 5,298. Also, the “percent polarization of the ^15N” value in [10] (physiological saline, HP vs TE spectra FIG. 3C/3D, 30° nutation angle) is recorded as 0.6%. Further, in series [11], the “conversion rate of nitrate to nitrite” value was “about 3.8 mole per day per 0.75 mL of saliva”. In [11], the “signals in saline-saliva sample” value was “about equal signals of [^15N]nitrate and [^15N]nitrite”.

Source of the values: patent publication US11771779B2, “Non-metallic magnetic resonance contrast agent” (HADASIT MEDICAL RESEARCH SERVICES & DEVELOPMENT LIMITED, priority 2018, dated 2023).
